pIC50: −log10 of the molar value. Counter-ions that a name gives are not always drawn.
What follows are compounds tested on Chloroquine/Pyrimethamine resistant Plasmodium falciparum K1 (assay: In vitro sensitivity assay: Plasmodium falciparum by 3H-hypoxanthine incorporation). Details: K1, Erythrocyte, read-out: IC50 K1 in vitro.
Format: cell-based
Method: Biological Test 1: In Vitro Sensitivity Assays: Plasmodium falciparum by ^3H-Hypoxanthine Incorporation.
The strain used for this assay is the Chloroquine/Pyrimethamine resistant Plasmodium falciparum K1 and drugs such as Chloroquine (10 mg/mL stock; start concentration 1000 ng/mL) and Artemisinine (Qinghaosu) (5 mg/mL stock; start concentration 10 ng/mL) were used as standards. Human red blood cells were used as host cells and the activity was measured using a ^3H-hypoxanthine incorporation assay.
Into a Costar™ 96-well microtitre plates, 100 μL of medium (RPMI 1640 without hypoxanthine 10.44 g/L, HEPES 5.94 g/L, Albumax® 5 g/L, Neomycin 10 mL/L, NaHCO3 2.1 g/L) were added to the wells of row containing drugs available from stock solutions of 10 mg/mL in DMSO (compounds were kept at −20° C. Since DMSO is toxic, care had to be taken not to exceed a final concentration of 0.5% DMSO). Then 100 μL of medium were added at rt to all wells of the plate. By means of a 12-well multi-pipette serial drug dilutions were prepared. A serial dilution factor of 1:2 is thus obtained. One row of wells without drugs served as controls. Next 100 μL of medium+washed human red blood cells A+(RBC) was added to the last 4 wells of the first row; these columns serve as background controls (that may be caused by 3H-hypoxanthine incorporation into RBC without the parasite). Into the remaining wells, 100 μL of medium+RBC+P. falciparum mix was added. The plates were placed for 48 h into a chamber at 37° C. gassed with a 4% CO2, 3% O2, 93% N2 mix. Finally 50 μL of medium+3H-hypoxanthine [(500 μL ^3H-hypoxanthine stock+500 μL EtOH+49 mL medium (0.5 μCi)] was added to each well and the plates were put back at 37° C. for 24 h into the chamber and gassed with a 4% CO2, 3% O2, 93% N2 mix. The plates were then read using the Cell Harvester and the data were transferred into a graphic program (Excel) and are evaluated to determine the IC50 by linear interpolation.

SMILES	pIC50
O[C@H]1CNCC[C@@H]1n1c2ccc(Cl)cc2c2cc(Cl)ccc21 (racemic) [Compound 5, Trans-4-(3,6-Dichloro-carbazol-9-yl)-piperidin-3-ol hydrochloride salt]	8.05
O[C@H]1CNCC[C@@H]1n1c2ccc(F)cc2c2cc(Cl)ccc21 [Compound 3, (3S,4S)-4-(3-Chloro-6-fluoro-carbazol-9-yl)-piperidin-3-ol hydrochloride salt]	8.52
O[C@@H]1CNCC[C@H]1n1c2ccc(F)cc2c2cc(Cl)ccc21 [Compound 4, (3R,4R)-4-(3-Chloro-6-fluoro-carbazol-9-yl)-piperidin-3-ol hydrochloride salt]	8.52
O[C@H]1CNCC[C@@H]1n1c2ccc(Cl)cc2c2cc(Cl)ccc21 [Compound 6, (3S,4S)-4-(3,6-Dichloro-carbazol-9-yl)-piperidin-3-ol hydrochloride salt]	8.00
O[C@@H]1CNCC[C@H]1n1c2ccc(Cl)cc2c2cc(Cl)ccc21 [Compound 7, (3R,4R)-4-(3,6-Dichloro-carbazol-9-yl)-piperidin-3-ol hydrochloride salt]	8.05
O[C@H]1CNCC[C@@H]1n1c2ccc(F)cc2c2cc(F)ccc21 [Compound 9, (3S,4S)-4-(3,6-Difluoro-carbazol-9-yl)-piperidin-3-ol hydrochloride salt]	7.80
O[C@@H]1CNCC[C@H]1n1c2ccc(F)cc2c2cc(F)ccc21 [Compound 10, (3R,4R)-4-(3,6-Difluoro-carbazol-9-yl)-piperidin-3-ol hydrochloride salt]	7.48
F[C@@H]1CNCC[C@@H]1n1c2ccc(Cl)cc2c2cc(Cl)ccc21 [Compound 11, 3,6-Dichloro-9-((3R,4S)-3-fluoro-piperidin-4-yl)-9H-carbazole hydrochloride salt]	5.94
Fc1ccc2c(c1)c1cc(Cl)ccc1n2[C@@H]1CCNC[C@@H]1F [Compound 12, 3-Chloro-6-fluoro-9-((3S,4R)-3-fluoro-piperidin-4-yl)-9H-carbazole hydrochloride salt]	5.44
Fc1ccc2c(c1)c1cc(Cl)ccc1n2[C@H]1CCNC[C@H]1F [Compound 13, 3-Chloro-6-fluoro-9-((3R,4S)-3-fluoro-piperidin-4-yl)-9H-carbazole hydrochloride salt]	6.05
O[C@@H]1CNCC[C@H]1n1c2ccccc2c2ccccc21 [Compound 15, (3R,4R)-4-Carbazol-9-yl-piperidin-3-ol hydrochloride salt]	6.42
O[C@H]1CNCC[C@@H]1n1c2ccccc2c2ccccc21 [Compound 16, (3S,4S)-4-Carbazol-9-yl-piperidin-3-ol hydrochloride salt]	6.44

Each compound was assayed on Plasmodium berghei, (GFP ANKA strain) (assay: Plasmodium berghei acute in vivo model). Details: NMRI mice, 50 mg/kg/day i.p., 4 daily doses, day 4, relative to untreated control group.
Method: Biological Test 2: Plasmodium berghei Acute In Vivo Model.
For this study Plasmodium berghei, (GFP ANKA strain) was used as parasite strain and drugs such as Chloroquine (Sigma C6628) Artemisinin (Sigma 36, 159-3) were used as positive controls.
For the assay a donor mouse with approximately 30% parasitaemia, heparinised blood (containing 50 μL of 200 μ/mL Heparin) was taken and diluted in physiological saline to 10^8 parasitized erythrocytes per mL. An aliquot (0.2 mL) of this suspension was injected intravenously (i.v.) into experimental groups of 3 mice (NMRI mice, females, 20-22 g), and a control group of 3 mice. The mice were studied in a standard macrolon cages type II at 22° C. and 60-70% relative humidity, and were fed with special pellets (PAB45—NAFAG 9009, Provimi Kliba A G, CH-4303 Kaiseraugst, Switzerland), water ad libitum. 4 hours post-infection—the experimental groups were treated with a single dose i.p of the tested drug. The dosage was 50 mg/kg/day and the drug concentration (DMSO 10%) was adjusted so that 0.1 mL/10 g was injected. In a similar manner after 24, 48 and 72 hours post-infection—the experimental groups were treated with a single daily dose i.p. Finally 24 hours after the last drug treatment, 1 μL tail blood was taken and dissolved in 1 mL PBS buffer. Parasitaemia was determined with a FACScan (Becton Dickinson) by counting 100'000 red blood cells. The difference between the mean value of the control group and those of the experimental groups was then calculated and expressed as a percent relative to the control group (=activity). The survival of the animals was monitored up to 30 days and mice surviving for 30 days were checked for parasitaemia and subsequently euthanised. A compound is considered curative if the animal survives to day 30 post-infection with no detectable parasites. The result is expressed as 1) reduction of parasitaemia on day 4 in % as compared to the untreated control group, and 2) mean survival of the group.
B. Franke-Fayard et al., Mol. Biochem. Parasitol., 137(1),23-33, 2004

SMILES	decrease of parasitemia [%]
O[C@H]1CNCC[C@@H]1n1c2ccc(Cl)cc2c2cc(Cl)ccc21 [Compound 6, (3S,4S)-4-(3,6-Dichloro-carbazol-9-yl)-piperidin-3-ol hydrochloride salt]	99.8
O[C@@H]1CNCC[C@H]1n1c2ccc(Cl)cc2c2cc(Cl)ccc21 [Compound 7, (3R,4R)-4-(3,6-Dichloro-carbazol-9-yl)-piperidin-3-ol hydrochloride salt]	100

Same assay, conditions: NMRI mice, 50 mg/kg/day i.p., 4 daily doses, survival monitored up to 30 days

SMILES	Mean Survival Days [days]
O[C@H]1CNCC[C@@H]1n1c2ccc(Cl)cc2c2cc(Cl)ccc21 [Compound 6, (3S,4S)-4-(3,6-Dichloro-carbazol-9-yl)-piperidin-3-ol hydrochloride salt]	30
O[C@@H]1CNCC[C@H]1n1c2ccc(Cl)cc2c2cc(Cl)ccc21 [Compound 7, (3R,4R)-4-(3,6-Dichloro-carbazol-9-yl)-piperidin-3-ol hydrochloride salt]	30

Each compound was assayed on P falciparum PF3D/^0087/N9 (assay: In vivo efficacy in a murine model of falciparum-malaria (4-day test)). Details: dose reducing parasitemia at day 7 after infection by 90% vs vehicle-treated mice; NODscidIL2Rynull mice engrafted with human erythrocytes.
Set-up: species or system Plasmodium falciparum
From the text: Biological Experiment 5: In Vivo Efficacy Against P falciparum PF3D/^0087/N9 for the compound No. 6 Described in Example 6 • In vivo activity in a murine model of falciparum-Malaria Angulo-Barturen I, Jimenez-Diaz M B, Mulet T, Rullas J, Herreros E, et al. (2008) A Murine Model of falciparum-Malaria by In Vivo Selection of Competent Strains in Non-Myelodepleted Mice Engrafted with Human Erythrocytes. PLoS ONE 3(5): e2252. doi:10.1371/journal.pone.0002252.
This study measures the therapeutic efficacy of compound no. 6 against Plasmodium falciparum growing in peripheral blood of NODscidIL2Rynull mice engrafted with human erythrocytes. The antimalarial efficacy of compound no. 6 is assessed using a “4-day test”.
The parameters of efficacy estimated in the study are a) the dose of compound no. 6 in mg·kg-1 that reduces parasitemia at day 7 after infection by 90% with respect to vehicle-treated mice (parameter denoted as ED90) and b) the estimated average daily exposure in whole blood of compound no. 6 necessary to reduce P. falciparum parasitemia in peripheral blood at day 7 after infection by 90% with respect to vehicle-treated mice (parameter used to measure the potency of the compound and denoted as AUCED90).

SMILES	ED90 [mg/kg]
O[C@H]1CNCC[C@@H]1n1c2ccc(Cl)cc2c2cc(Cl)ccc21 [Compound 6, (3S,4S)-4-(3,6-Dichloro-carbazol-9-yl)-piperidin-3-ol hydrochloride salt]	22.5

Same assay, conditions: estimated average daily exposure in whole blood needed to reduce parasitemia at day 7 by 90% vs vehicle-treated mice

SMILES	AUCED90 [μg · h · ml^−1 · day^−1]
O[C@H]1CNCC[C@@H]1n1c2ccc(Cl)cc2c2cc(Cl)ccc21 [Compound 6, (3S,4S)-4-(3,6-Dichloro-carbazol-9-yl)-piperidin-3-ol hydrochloride salt]	28.5

The compounds below were run on P. falciparum strain NF54 (assay: P. falciparum growth assay ([3H] hypoxanthine incorporation)). Details: Plasmodium falciparum, NF54, read-out: IC50 NF54.
Format: cell-based
Method: • Cultivation of P. falciparum:
P. falciparum strain NF54 was obtained from the Research and Reference Reagent
Resource Center (MR4) (Manassas, Va.). The two strains were maintained in vitro by a modification of the method of Trager and Jensen. Cultures were maintained in A positive (A+) human erythrocytes suspended at 5% hematocrit in complete medium. 5 g albumax II (Gibco-Invitrogen, Cat No#11021037), 2.5 mg gentamicin (Sigma Aldrich), 25 mM HEPES (Invitrogen), 5 mg hypoxanthine (Sigma), and 1 L of RPMI 1640 (Invitrogen, Cat No#11875085). Cultures were grown in 100 mm petri-dishes (BD Falcon) at a volume of 15 mL and were kept in a standard gas environment of 4% CO2 and 3% 02 at temperature 37° C. in a tri-gas incubator (Cat#3131, Thermo Scientific Forma Series II Water Jacketed). Parasite growth and morphology were observed daily using thin smears at 100× (oil immersion) magnification following staining with Geimsa stain. • P. falciparum growth assay:
The protocol assesses the compound efficacy against the growth of P. falciparum in-vitro.
Parasite growth was detected in assay by the traditional [3H] hypoxanthine incorporation assay as previously described by Desjardins and colleagues (Antimicrob. Agents Chemother., 16(6), 710, 1979). To perform the [3H] hypoxanthine incorporation assay, the new antimalarial agents were serially diluted 1:1 into hypoxanthine-free complete medium to a final volume of 100 μL (final antimalarial agent concentration range, 10,000 nM to 4.8 nM may change in special case) in 96 well sterile cell culture plates. […] All cultures used in the study are albumax II adopted. The microtiter plates were incubated in chamber in a standard gas environment at 37° C. for 72 h. After 48 h of incubation and prior to addition of 50 μL (0.5 μCi/well) 3H-Hypoxanthine (specific activity, 20 Ci/mmol, Conc. 1.0 mCi/ml; American Radiolabeled Chemicals, Inc., St. Louis, Mo.), culture growth was assessed by making the smears that ensures the culture has grown in % p and assay plate is further incubated for 24 h. Following the incubation period, the plates were harvested with a FilterMate cell harvester (Perkin Elmer) onto unifilter-96 GF/B plates, washed with distilled water to remove excess radiochemical and plates were kept for drying 37° C. overnight or 60° C. for 1 h. 50 μL of Microscint scintillation cocktail (Microscint-High Efficiency LSC-Cocktail; Perkin Elmer) added in the unifilter-96 GF/B plates and kept for 15-20 min. The plates were counted in a Top Count NXT microplate scintillation and luminescence counter (Perkin Elmer). The mean values for [3H]hypoxanthine incorporation in parasitized control and non-parasitized control erythrocytes were calculated.
Assay data were analyzed using Graph pad prism ver.5 software. A variable sigmoid dose response curve is plotted keeping log concentrations at X-axis and % inhibition at Y-axis.

SMILES	pIC50
O[C@H]1CNCC[C@@H]1n1c2ccc(Cl)cc2c2cc(Cl)ccc21 (racemic) [Compound 5, Trans-4-(3,6-Dichloro-carbazol-9-yl)-piperidin-3-ol hydrochloride salt]	6.96
O[C@H]1CNCC[C@@H]1n1c2ccc(Cl)cc2c2cc(Cl)ccc21 [Compound 6, (3S,4S)-4-(3,6-Dichloro-carbazol-9-yl)-piperidin-3-ol hydrochloride salt]	7.40
O[C@@H]1CNCC[C@H]1n1c2ccc(Cl)cc2c2cc(Cl)ccc21 [Compound 7, (3R,4R)-4-(3,6-Dichloro-carbazol-9-yl)-piperidin-3-ol hydrochloride salt]	7.39
O[C@H]1CNCC[C@@H]1n1c2ccc(F)cc2c2cc(F)ccc21 [Compound 9, (3S,4S)-4-(3,6-Difluoro-carbazol-9-yl)-piperidin-3-ol hydrochloride salt]	6.51
